Data as given in patent US3932625A, “Method and compound for parasite control” (Purdue Research Foundation, priority 1974, dated 1976).

Assays:
[1] = test system: transport of real D-glucose across a cell membrane; settings: stated as known characteristic; cited from earlier work
[2] = Single-dose acute toxicity (lethal dose, 50% kill of test animals); settings: rat, in vivo, rats, route not stated, read-out: LD50 (lethal dose as measured by a 50% kill of test animals)
Description: Thus, 5-Thio-D-glucose is suitable for administering to animals and/or humans.

OC[C@H]1SC(O)[C@H](O)[C@@H](O)[C@@H]1O (stereo partly drawn) [5-Thio-D-glucose]
inhibition of transport of real D-glucose across a cell membrane [1]: inhibiting the transport of real D-glucose across a cell membrane | LD50 [2]: 14000 mg/kg
